Our source for the IC50 and EC50 values is patent US20260242398A1, “BENZOPYRIMIDIN-4(3H)-ONES AS PI3K INHIBITORS” (OnKure, Inc., priority 2022, published 2026).

SMILES strings stand for the structures. Where two headings read alike, the source gives them in different places.

The IC50 is the midpoint of a concentration-inhibition curve. In general, EC50 refers to the concentration needed to bring the measured effect to its halfway point.

Holding throughout (assay type): cell-based
Experiment [1] relates to phosphorylation of AKT (pAKT) in SKBR3 cells express WT PI3Ka. Kind of experiment: In vitro cell pAKT (Ser473) HTRF, SKBR3 cells. Conditions: inhibition of pAKT. On the procedure: (§1) In Vitro Cell pAKT: Determination of IC50 Values for Inhibition of Phosphorylation of AKT (pAKT) in T47D Cells Expressing Mutant PI3Ka (H1047R) Mutation and SKBR3 Cells Express WT PI3Ka.
(§2) T47D or SKBR3 cells were trypsinized, resuspended in culture media and seeded onto assay ready plates. T47D culture media consisted of RPMI, 10% FBS and Insulin (0.2 units/mL). SKBR3 culture media consisted of McCoy's 5a and 10% FBS. Cells were seeded at a density of 5000 cells/well and dispensed in 12.5 uL onto 384 well assay ready plates (Perkin Elmer, 6008238)). Assay ready plates had previously been stamped with 10-point dilutions of compounds of interest, as well as controls. The Echo655 is used to stamp plates at 12.5 nL of compound or DMSO. Cells were grown for 6 hour at 37° Celsius and 5% CO2. After 6 hour, 4 uL of Lysis buffer reagent was added to the plate, which was then centrifuged for 1 minute at 1000 rpm. Then the plate was incubated at room temperature for 30 minutes. After 30 minutes, 4 uL of antibody mix containing Eu Cryptate, d2 Cryptate, and detection buffer, was added to the plate. The plate was centrifuged for 1 minute at 1000 rpm and then incubated overnight at room temperature. The plate was read on an Envision plate reader using the HTRF protocol. The percentage of inhibition of AKT phosphorylation was calculated using the following formula: % Inhibition=100×(pAKTHC−pAKTSample)/(pAKTHC−pAKTLC)), where pAKTHC is obtained from cells treated with 0.1% DMSO only; pAKTLC is obtained from cells treated with 10 uM Alpelisib. The IC50 (concentration achieving 50% inhibition of pAKT) is calculated by fitting the Curve using XWfit (v5.3.1.3), equation 201: Y=Bottom+(Top−Bottom)/(1+10^((Log IC50−X)*HillSlope)).
A general note: Time-resolved FRET reads energy transfer from a long-lived donor to a nearby acceptor.

Experiment [2] concerns SKBR3 cells express WT PI3Ka. Description: In vitro cell proliferation (CellTiter-Glo, 72 hours), SKBR3 cells. Conditions: inhibition of proliferation. As for the experimental part: (§3) In Vitro Cell Proliferation: Determination of EC50 Values for Inhibition of Proliferation in T47D Cells Expressing Mutant PI3Ka (H1047R) Mutation and SKBR3 Cells Express WT PI3Ka.
(§4) T47D or SKBR3 cells were trypsinized, resuspended in culture media and seeded onto assay ready plates. T47D culture media consisted of RPMI, 10% FBS and Insulin (0.2 units/mL). SKBR3 culture media consisted of McCoys 5a and 10% FBS. Cells were seeded at a density of 1,500 cells/well and dispensed in 50 uL onto 384 well assay ready plates (Corning, 89089-790). Assay ready plates had previously been stamped with 10-point dilutions of compounds of interest, as well as controls. The Echo655 is used to stamp plates at 40 nL of compound or DMSO. Cells were grown for 72 hours at 37° Celsius and 5% CO2. After 72 hours, cells were equilibrated at room temperature for 15 minutes. 30 uL of CellTiter-Glo reagent is added to the plate, which is then shaken for 30 minutes at temperature at 300-500 rpm. Cells are then read on an Envision plate reader. The percentage of inhibition of proliferation was calculated using the following formula: % Inhibition=100×(LumD−LumSample)/(LumD−LumInh), where D is obtained from cells treated with 0.1% DMSO only; Inh is obtained from cells treated with 10 uM Alpelisib. The effective concentration achieving 50% inhibition of proliferation (EC50) is calculated by fitting the Curve using XWfit (v5.3.1.3), equation 201: Y=Bottom+(Top−Bottom)/(1+10^((Log EC50−X)*HillSlope)).
Background: In ATP-based viability assays light output follows the ATP content of the culture.

Experiment [3] has as its system T47D cells expressing mutant PI3Ka (H1047R). Kind of experiment: In vitro cell proliferation (CellTiter-Glo, 72 hours), T47D cells. Conditions: inhibition of proliferation, read-out: Avg T-47D EC50. As for the experimental part:
as §3, §4

Experiment [4] has as its system phosphorylation of AKT (pAKT) in T47D cells expressing mutant PI3Ka (H1047R). Kind of experiment: In vitro cell pAKT (Ser473) HTRF, T47D cells. Conditions: inhibition of pAKT, read-out: Avg T-47D IC50. As for the experimental part: as §1, §2

For the compound `Cc1cc(C(C)Nc2ccccc2C(=O)O)c2nc(SCc3ccc(Cl)c(OC(F)(F)F)c3)n(C)c(=O)c2c1` (single isomer, unassigned) [Example 32, 2-((1-(2-((4-chloro-3-(trifluoromethoxy)benzyl)thio)-3,6-dimethyl-4-oxo-3,4-dihydroquinazolin-8-yl)ethyl)amino)benzoic acid], the IC50 in experiment [1] (6 hour) and in experiment [4] (6 hour) was above 15 µM each time. The EC50 in experiment [2] and in experiment [3] was 2 to 15 µM each time.
As to `CC(Nc1ccc(F)cc1C(=O)O)c1cc(F)cc2c(=O)n(C)c(N3CCN(CC(F)(F)F)CC3)nc12` (single isomer, unassigned) [Example 33, 5-fluoro-2-((1-(6-fluoro-3-methyl-4-oxo-2-(4-(2,2,2-trifluoroethyl)piperazin-1-yl)-3,4-dihydroquinazolin-8-yl)ethyl)amino)benzoic acid], the IC50 in experiment [1] (6 hour) was above 15 µM; in experiment [4] (6 hour) it was 0.001 to 1 µM. The concentration for a half-maximal effect (EC50) was above 15 µM in experiment [2] (Homo sapiens, SK-BR-3, 72 h) and 0.001 to 0.5 µM in experiment [3].
Regarding `CC(Nc1ccc(F)cc1C(=O)O)c1cc(F)cc2c(=O)n(C)c(N3CCN(CC(F)(F)F)CC3)nc12` (single isomer, unassigned) [Example 34, 5-fluoro-2-((1-(6-fluoro-3-methyl-4-oxo-2-(4-(2,2,2-trifluoroethyl)piperazin-1-yl)-3,4-dihydroquinazolin-8-yl)ethyl)amino)benzoic acid], the IC50 was 5 to 15 µM in experiment [1] (6 hour) and above 15 µM in experiment [4] (6 hour). The EC50 in experiment [2] and in experiment [3] was above 15 µM each time.
As for `CC(Nc1ccccc1C(=O)O)c1cc(F)cc2c(=O)n(C)c(N3CCN(CC(F)(F)F)CC3)nc12` (single isomer, unassigned) [Example 36, 2-((1-(6-fluoro-3-methyl-4-oxo-2-(4-(2,2,2-trifluoroethyl)piperazin-1-yl)-3,4-dihydroquinazolin-8-yl)ethyl)amino)benzoic acid], the 50% inhibitory concentration (IC50) in experiment [1] (6 hour) and in experiment [4] (6 hour) was above 15 µM each time. The EC50 in experiment [2] and in experiment [3] was above 15 µM each time.
Take `CC(Nc1ccccc1C(=O)O)c1cc(C(F)(F)F)cc2c(=O)n(C)c(N3CCN(CC(F)(F)F)CC3)nc12` (single isomer, unassigned) [Example 37, 2-((1-(3-methyl-4-oxo-2-(4-(2,2,2-trifluoroethyl)piperazin-1-yl)-6-(trifluoromethyl)-3,4-dihydroquinazolin-8-yl)ethyl)amino)benzoic acid]: the IC50 in experiment [1] (Homo sapiens, SK-BR-3, 6 h) was above 15 µM; in experiment [4] (6 hour) it was 0.001 to 1 µM. The EC50 lay within 2 to 15 µM in experiment [2] (Homo sapiens, SK-BR-3, 72 h) and 0.5 to 2 µM in experiment [3].
Take `CC(Nc1ccccc1C(=O)O)c1cc(C(F)(F)F)cc2c(=O)n(C)c(N3CCN(CC(F)(F)F)CC3)nc12` (single isomer, unassigned) [Example 38, 2-((1-(3-methyl-4-oxo-2-(4-(2,2,2-trifluoroethyl)piperazin-1-yl)-6-(trifluoromethyl)-3,4-dihydroquinazolin-8-yl)ethyl)amino)benzoic acid]: the IC50 in experiment [1] (6 hour) and in experiment [4] (6 hour) was above 15 µM in each case. In addition, the EC50 in experiment [2] was 2 to 15 µM; in experiment [3], above 15 µM.
Take `Cc1cc(C(C)Nc2ccccc2C(=O)O)c2nc(SCC(C)C)n(C)c(=O)c2c1` (single isomer, unassigned) [Example 39, 2-((1-(2-(isobutylthio)-3,6-dimethyl-4-oxo-3,4-dihydroquinazolin-8-yl)ethyl)amino)benzoic acid]: the IC50 in experiment [1] (Homo sapiens, SK-BR-3, 6 h) is above 15 µM; in experiment [4] (6 hour), above 15 µM. Moreover, the EC50 in experiment [2] (Homo sapiens, SK-BR-3, 72 h) is above 15 µM; in experiment [3], above 15 µM.
With `Cc1cc(C(C)Nc2ccccc2C(=O)O)c2nc(SCC(C)C)n(C)c(=O)c2c1` (single isomer, unassigned) [Example 40, 2-((1-(2-(isobutylthio)-3,6-dimethyl-4-oxo-3,4-dihydroquinazolin-8-yl)ethyl)amino)benzoic acid], the IC50 in experiment [1] (6 hour) was above 15 µM; in experiment [4] (6 hour) it was 1 to 5 µM. Moreover, the figures for the EC50 in experiment [2] and in experiment [3] were above 15 µM and 2 to 15 µM, respectively.
Consider `Cc1cc(C(C)Nc2ccccc2C(=O)O)c2nc(Nc3ccc(Cl)cc3)n(C)c(=O)c2c1` (single isomer, unassigned) [Example 41, 2-((1-(2-((4-chlorophenyl)amino)-3,6-dimethyl-4-oxo-3,4-dihydroquinazolin-8-yl)ethyl)amino)benzoic acid], for which the IC50 in experiment [1] (Homo sapiens, SK-BR-3, 6 h) is above 15 µM; in experiment [4] (Homo sapiens, T47D, 6 h), above 15 µM. Also, the EC50 in experiment [2] lay in the range of 2 to 15 µM; in experiment [3] (Homo sapiens, T47D, 72 h), 2 to 15 µM.
Consider `Cc1cc(C(C)Nc2ccccc2C(=O)O)c2nc(Nc3ccc(Cl)cc3)n(C)c(=O)c2c1` (single isomer, unassigned) [Example 42, 2-((1-(2-((4-chlorophenyl)amino)-3,6-dimethyl-4-oxo-3,4-dihydroquinazolin-8-yl)ethyl)amino)benzoic acid], for which the IC50 in experiment [1] (6 hour) and in experiment [4] (6 hour) was above 15 µM throughout. Further, the EC50 in experiment [2] was above 15 µM; in experiment [3] it was 2 to 15 µM.
With `Cc1cc(C(C)Nc2ccccc2C(=O)O)c2nc(NCc3ccc(Cl)cc3)n(C)c(=O)c2c1` (single isomer, unassigned) [Example 43, 2-((1-(2-((4-chlorobenzyl)amino)-3,6-dimethyl-4-oxo-3,4-dihydroquinazolin-8-yl)ethyl)amino)benzoic acid], the IC50 in experiment [1] (Homo sapiens, SK-BR-3, 6 h) was above 15 µM; in experiment [4] (6 hour) it was 5 to 15 µM. The EC50 in experiment [2] (Homo sapiens, SK-BR-3, 72 h) was above 15 µM; in experiment [3] (Homo sapiens, T47D, 72 h) it was 2 to 15 µM.
As for `Cc1cc(C(C)Nc2ccccc2C(=O)O)c2nc(NCc3ccc(Cl)cc3)n(C)c(=O)c2c1` (single isomer, unassigned) [Example 44, 2-((1-(2-((4-chlorobenzyl)amino)-3,6-dimethyl-4-oxo-3,4-dihydroquinazolin-8-yl)ethyl)amino)benzoic acid], the IC50 in experiment [1] (6 hour) and in experiment [4] (6 hour) was above 15 µM each time. Moreover, the EC50 in experiment [2] is above 15 µM; in experiment [3] it was 2 to 15 µM.
Consider `Cc1cc(C(C)Nc2ccccc2C(=O)O)c2nc(NC[C@H](C)c3ccccc3)n(C)c(=O)c2c1` (single isomer, unassigned) [Example 45], for which the IC50 in experiment [1] (Homo sapiens, SK-BR-3, 6 h) was above 15 µM; in experiment [4] (6 hour), above 15 µM. Moreover, the EC50 was above 15 µM in experiment [2] and 2 to 15 µM in experiment [3].
Take `Cc1cc(C(C)Nc2ccccc2C(=O)O)c2nc(NC[C@H](C)c3ccccc3)n(C)c(=O)c2c1` (single isomer, unassigned) [Example 46]: the IC50 in experiment [1] (6 hour) was above 15 µM; in experiment [4] (6 hour) it was 0.001 to 1 µM. Besides, the results for the EC50 in experiment [2] and in experiment [3] were 2 to 15 µM and 0.5 to 2 µM, respectively.
On to `Cc1cc(C(C)Nc2ccccc2C(=O)O)c2nc(NC[C@@H](C)c3ccccc3)n(C)c(=O)c2c1` (single isomer, unassigned) [Example 47], for which the IC50 was above 15 µM in experiment [1] (Homo sapiens, SK-BR-3, 6 h) and 5 to 15 µM in experiment [4] (6 hour). The EC50 in experiment [2] was above 15 µM; in experiment [3], 0.5 to 2 µM.
Regarding `Cc1cc(C(C)Nc2ccccc2C(=O)O)c2nc(NC[C@@H](C)c3ccccc3)n(C)c(=O)c2c1` (single isomer, unassigned) [Example 48], the IC50 in experiment [1] (6 hour) and in experiment [4] (6 hour) was above 15 µM each time. Also, the EC50 in experiment [2] and in experiment [3] was 2 to 15 µM each time.
